From patent US11111214B2 (priority 2013, dated 2021)

Key:
[1] = in vitro; details: human, hepatocytes
[2] = in vitro; details: rat, hepatocytes
[3] = target: T1, recombinant human kappa (KOR) opioid receptor (Homo sapiens, UniProt P41145); assay: biochemical; type: binding
T1 construct: expressed in transfected cells; host or cells: CHO-K1 cell membranes

[4] = target: T2, recombinant human mu (MOR) opioid receptor (Homo sapiens, UniProt P35372); assay: biochemical; type: binding; details: read-out: Mu receptor % inhibition at single concentration, % inhibition @ 10 μM
T2 construct: expressed in transfected cells; host or cells: CHO-K1 cell membranes
T2 sequence (P35372 whole entry): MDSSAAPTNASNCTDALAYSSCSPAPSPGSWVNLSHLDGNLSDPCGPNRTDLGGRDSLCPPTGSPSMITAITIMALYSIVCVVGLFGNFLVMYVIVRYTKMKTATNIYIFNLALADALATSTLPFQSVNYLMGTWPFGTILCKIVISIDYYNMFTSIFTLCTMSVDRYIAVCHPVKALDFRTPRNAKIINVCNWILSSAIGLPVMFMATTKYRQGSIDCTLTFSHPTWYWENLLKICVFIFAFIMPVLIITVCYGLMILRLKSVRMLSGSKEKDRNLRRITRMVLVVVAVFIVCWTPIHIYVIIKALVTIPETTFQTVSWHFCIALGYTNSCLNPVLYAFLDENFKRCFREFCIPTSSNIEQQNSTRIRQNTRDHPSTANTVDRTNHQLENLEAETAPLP

[5] = target: T3, KOR (kappa opioid receptor) (Homo sapiens, UniProt P41145); assay: cell-based
T3 construct: expressed in transfected cells; host or cells: CHO-K1 cells stably expressing KOR
T3 sequence (P41145 whole entry): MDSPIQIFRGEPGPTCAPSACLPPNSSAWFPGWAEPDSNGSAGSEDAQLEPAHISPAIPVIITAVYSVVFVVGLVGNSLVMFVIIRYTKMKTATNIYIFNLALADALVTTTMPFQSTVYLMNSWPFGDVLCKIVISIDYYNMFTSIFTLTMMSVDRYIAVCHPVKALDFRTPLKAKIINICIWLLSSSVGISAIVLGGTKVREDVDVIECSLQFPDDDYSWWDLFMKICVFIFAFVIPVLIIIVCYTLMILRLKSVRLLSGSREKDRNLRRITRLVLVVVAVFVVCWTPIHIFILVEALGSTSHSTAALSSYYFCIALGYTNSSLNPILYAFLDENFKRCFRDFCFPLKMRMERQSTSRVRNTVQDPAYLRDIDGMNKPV

[6] = not given; remark: listed apart in the source

T1 sequence (P41145 whole entry): as above

## CN(C(=O)Cc1ccc(Cl)c(Cl)c1)[C@H](CN1CCCC1)c1cccc(NS(=O)(=O)CCOCC(F)(F)F)c1.Cl [compound 19, 2-(3,4-dichlorophenyl)-N-methyl-N-{(1S)-2-(pyrrolidin-1-yl)-1-[3-({[2-(2,2,2-trifluoroethoxy)ethyl]sulfonyl}amino)phenyl]ethyl}acetamide]
other
  In vitro Hepatocyte Clearance, Rat % hep Blood flow: 45%
[1]
  CLhep predicted: 11.7 mL/min/kg
[2]
  CLhep predicted: 26.8 mL/min/kg
[3]
  IC50: 0.69 nM
  Ki: 0.16 nM
[4]
  inhibition at 10 µM: 99.1%
[5]
  EC50: 0.08 nM
[6]
  In vitro Hepatocyte Clearance, Human % hep Blood flow: 50%

## CN(C(=O)Cc1ccc(Cl)c(Cl)c1)[C@H](CN1CCCC1)c1ccc(OCCO)cc1.Cl [compound 36, (S)-2-(3,4-dichlorophenyl)-N-(1-(4-(2-hydroxyethoxy)phenyl)-2-(pyrrolidin-1-yl)ethyl)-N-methylacetamide]
other
  In vitro Hepatocyte Clearance, Rat % hep Blood flow: 24%
[1]
  CLhep predicted: 16.5 mL/min/kg
[2]
  CLhep predicted: 14.3 mL/min/kg
[3]
  IC50: 0.43 nM
  Ki: 0.1 nM
[4]
  inhibition at 10 µM: 64.9%
[5]
  EC50: 0.029 nM
[6]
  In vitro Hepatocyte Clearance, Human % hep Blood flow: 71%
